Assays:
U87MG = assay: MTT cytotoxicity assay, U87MG; format: cell-based, human; settings: 72 h incubation
Experimental: (§1) The cytotoxic activity of prepared RAPTA complexes (4a–4h) was evaluated by following the standard procedure of the MTT experiment against a series of glioblastoma cells (LN 229, T98, U87MG) in triplicate. In order to accomplish this study, cells were maintained for 72 h with complexes of various concentrations ranging from 2–160 μM, taking cisplatin as a typical positive control.[22]
(§2) RAPTA complexes were dissolved in 1% DMSO, and 0.9% NaCl aqueous solution was used to dissolve cisplatin. A cell suspension was prepared and the number of cells taken was 2.5 × 10^4 mL^−1. The cells were seeded in 96-well plates (200 μL per well) and allowed 80% confluence prior to treatment. The cells were formerly treated with various concentrations (2.5–160 μM) of complex 4a–h while the control group was treated with PBS […]. After the 72 hours of incubation, 0.5% MTT solution was added to each well (20 μL) and further incubated for 4 hours at […]. The formazan crystals that were formed were dissolved in 150 μL DMSO and then the OD was measured by a microplate reader at 540 nm. The % growth inhibition of the control and treated cells were calculated and represented as the growth inhibition percentage as explained below.% growth inhibition = 100 − [(AD × 100)/AB]where AD is the absorbance measured in wells containing the treated and control samples and AB is the measured absorbance for the wells with media and a vehicle that served as the blank. IC50 was calculated using Graphpad Prism (version 6.0) where % cell viability was plotted against drug concentration.

LN229 = assay: MTT cytotoxicity assay, LN229; format: cell-based, human; settings: 72 h incubation
Experimental: as §1, §2

VEGF = VEGF Elisa test; format: cell-based, human; settings: U87MG and T98G, 1 to 20 μM
From the text: The vascular endothelial growth factor (VEGF), formerly known as the vascular permeability factor (VPF) is a signal protein produced by many cells, which stimulates blood vessel formation. In hypoxic conditions when blood circulation is insufficient in the cells, VEGF restores the oxygen supply to tissues.[26] Proper blood supply is required for solid tumour proliferation beyond a limited size; therefore, cancers that can express VEGF are able to grow and metastasize. Two cancer cells, i.e. U87MG and T98G were incubated with increased concentrations (1 to 20 μM) of 4c and 4d and the % of inhibition of VEGF was estimated by an ELISA reader.
The capture antibody was diluted to the working concentration in PBS without the carrier protein for coating the 96-well plate. The plate was sealed and incubated overnight at room temperature. It was then aspirated and washed three times with wash buffer and blocked by adding 300 μL of reagent diluent to each well and then incubating at room temperature for a minimum of 1 h. This aspiration was repeated again and then the plate was ready for sample addition.
The cells (U87MG and T98G) were treated for 48 h and the supernatants were collected; 100 μL of these samples were added per well and incubated for 2 h at room temperature. […] The optical density of each well was measured immediately by an Elisa reader (λexc = 450 nm).

Ct-DNA = assay: Viscosity measurement with Ct-DNA; format: binding, calf; settings: with respect to EtBr
Experimental: The hydrodynamic study of the viscosity was conducted to screen the binding nature of the designated complexes 4c and 4d with Ct-DNA.
with respect to cisplatin.
UV–Visible, fluorescence spectroscopies and cyclic voltammetry, J. Photochem.
2. M. Shamsi-Sani, F. Hirini, SM. Abedini, M. Seddighi, Synthesis of benzimidazole
dipyridoquinoxaline and dipyridophenazine ligands as photosensitizing antennae:
curvature in Stern-Volmer plots, J. Am. Chem. Soc., 1983, 105, 1494–1498. (b) B.
hypoxia active, GSH-resistant cancer cytoselective and mitochondria-targeting
cancer stem cell therapeutic agents. Dalton Trans., 2022, 51, 5494-5514.
derivative with bovine serum albumin, J. Pharm. Anal., 2016, 6, 56–63.
6. K. Jeyalakshmi, J. Haribabu, C. Balachandran, S. Swaminathan, N. S. P.

Conductivity measurement = format: physicochemical; settings: 3 x 10^-5 M; for Conductivity (ΛM) 10% aq DMSO: in 10% aq DMSO; for Conductivity (ΛM) DMSO: in DMSO
From the text: concentrations gradually.
Origin Lab, version 8.5 was
equation (v) given below: […]
Conductivity measurement 7
complexes with DMSO and aqueous DMSO.
followed the previously described procedure. An orbital shaker was used to shake a known
Different ratios (0.5:1, 1:1,
saturated n-octanol to get the partition coefficient. The absorbance of aliquots of the aqueous

T98 = assay: MTT cytotoxicity assay, T98; format: cell-based, human; settings: 72 h incubation
Experimental: as §1, §2

T98G cell line = assay: Time-dependent ROS generation study, DCFH-DA staining; format: cell-based, human; settings: 20 μM, 2, 6 and 10 h
Experimental: The oxidative stress was measured by the level of intracellular ROS via 2′,7′-dichlorodihydrofluorescein diacetate (DCFH-DA) staining.[24] […] Herein, cells were treated with complexes 4c and 4d with a concentration of 20 μM for 2, 6 and 10 h. We observed a higher level of […] fluorescence with the increase in the incubation time because of ROS generation (Fig. 6).
Fig. 7 Graphical representation of the average DCF fluorescence intensity in the T98G cell line upon treatment with cisplatin and complexes 4c and 4d. Incubation time: 2 h, 6 h and 10 h.
Brain cancer cells were stained with 2′,7′-dichlorofluorescein diacetate (DCFDA) to measure the reactive oxygen species (ROS) and subsequent oxidative stress generated from RAPTA complexes. They were restained by the […] fluorescence intensity generated from oxidized DCFDA. The cancer cells were cultured in a 24-well plate till 70% confluency and treatment was carried out with the aforesaid complex for 24 hours. The ROS generation mediated by the complex was evaluated using DCFDA-2′,7′-dichlorofluorescein diacetate (25 μM) staining for 30 min. The cells were washed with PBS, followed by fresh media replenishment. The images were captured under the EVOS M5000 fluorescent live cell imager (Thermo Fisher Scientific, USA).

SMILES | IC50 (U87MG) [µM] | IC50 (LN229) [µM] | VEGF concentration with the increase in complex concentration (VEGF) | relative viscosity of Ct-DNA on increasing complex concentration (Ct-DNA) | Conductivity (ΛM) 10% aq DMSO (Conductivity measurement) [S cm2 mol-1] | Conductivity (ΛM) DMSO (Conductivity measurement) [S cm2 mol-1] | IC50 (T98) [µM] | average DCF fluorescence intensity (intracellular ROS) (T98G cell line)
C1N2CN3CN1CP(C2)C3.Cc1ccc(C(C)C)cc1.Cc1ccnc2c1ccc1c(C)ccnc12.F[P-](F)(F)(F)(F)F.F[P-](F)(F)(F)(F)F.[Ru+2] [4c, [(η^6-p-Cymene)Ru^II(κ^2-N,N-4,7dimethylphenanthroline)(PTA)]·2PF6] | 0.97 ± 0.02 | 0.88 ± 0.02 | constant decrease | abrupt increase in viscosity up to ri = 2 | 78 | 76 | 0.97 ± 0.02 | gradual increase with respect to the incubation time
C1N2CN3CN1CP(C2)C3.Cc1ccc(C(C)C)cc1.F[P-](F)(F)(F)(F)F.F[P-](F)(F)(F)(F)F.[Ru+2].c1ccc(-c2ccnc3c2ccc2c(-c4ccccc4)ccnc23)cc1 [4d, [(η^6-p-Cymene)Ru^II(κ^2-N,N-4,7diphenylphenanthroline)(PTA)]·2PF6] | 0.93 ± 0.02 | 0.96 ± 0.02 | constant decrease | steady escalation in the relative viscosity | 77 | 74 | 0.94 ± 0.02 | gradual increase with respect to the incubation time

From publication PMC9241057, “Ru(II)arene(N^N bpy/phen)-based RAPTA complexes for in vitro anti-tumour activity in human glioblastoma cancer cell lines and in vivo toxicity studies in a zebrafish model” (RSC Advances, 2022)
